In patent US20260078158A1, “COMPOSITIONS COMPRISING CXCL10-DERIVED PEPTIDES AND METHODS OF USE THEREOF” (priority 2022, published 2026):
Values joined by “and” are separate entries in the source; they are usually repeats but may differ in a detail not shown here. Equal values may be shown once. Read-outs that look alike come from different tables or passages of the source.

Columns and labels:
[1] = test system: E. cloacae species complex; experiment: microbe, parasite or virus in culture; assay type: cell-based, Enterobacter cloacae; conditions: acetate formulation
[2] = test system: Enterococcus faecalis; experiment: microbe, parasite or virus in culture; assay type: cell-based; conditions: acetate formulation, in µg/mL
[3] = test system: Enterococcus faecium; experiment: microbe, parasite or virus in culture; assay type: cell-based; conditions: acetate formulation
[4] = test system: Escherichia coli; experiment: microbe, parasite or virus in culture; assay type: cell-based; conditions: acetate formulation
[5] = test system: Klebsiella pneumoniae; set-up: MIC: unit not given beside the values; conditions: strain ATCC 43816, sponsor, acetate formulation
[6] = test system: Streptococcus pneumoniae; experiment: microbe, parasite or virus in culture; assay type: cell-based; conditions: acetate formulation, in µg/mL
[7] = test system: Acinetobacter baumannii-calcoaceticus complex; experiment: microbe, parasite or virus in culture; assay type: cell-based; conditions: acetate formulation
[8] = test system: Staphylococcus aureus; experiment: microbe, parasite or virus in culture; assay type: cell-based; conditions: acetate formulation, in µg/mL
[9] = test system: Pseudomonas aeruginosa; experiment: microbe, parasite or virus in culture; assay type: cell-based; conditions: acetate formulation, in µg/mL

RYVRCRCI [Peptide P194]
MIC ([1]; Enterobacter cloacae strain 1230117, non-MDR, replicate R1): 8 µg/mL | MIC ([1]; Enterobacter cloacae strain 1230117, non-MDR, replicate R2): 8 µg/mL | MIC ([1]; strain 1197959, non-MDR, replicate R1): 16 µg/mL | MIC ([1]; strain 1197959, non-MDR, replicate R2): 16 µg/mL | MIC ([1]; strain 1204419, non-MDR, replicate R1): 16 µg/mL | MIC ([1]; strain 1204419, non-MDR, replicate R2): 16 µg/mL | MIC ([1]; strain 1230601, non-MDR, replicate R1): 16 µg/mL | MIC ([1]; strain 1230601, non-MDR, replicate R2): 8 µg/mL | MIC ([1]; strain 1232701, MDR, replicate R1): 16 µg/mL | MIC ([1]; strain 1232701, MDR, replicate R2): 16 µg/mL | MIC ([2]; strain 1204777, VRE, replicate R1): 4 | MIC ([2]; strain 1204777, VRE, replicate R2): 2 | MIC ([2]; strain 1211589, VRE, replicate R1): 4 | MIC ([2]; strain 1211589, VRE, replicate R2): 2 | MIC ([2]; strain ATCC 29212, QC, replicate R1): 4 | MIC ([2]; strain ATCC 29212, QC, replicate R2): 4 | MIC ([3]; strain 1196024, VRE, replicate R1): 2 µg/mL | MIC ([3]; strain 1196024, VRE, replicate R2): 2 µg/mL | MIC ([3]; strain 1208412, VRE, replicate R1): 2 µg/mL | MIC ([3]; strain 1208412, VRE, replicate R2): 1 µg/mL | MIC ([3]; strain 1222807, VSE, replicate R1): 2 µg/mL | MIC ([3]; strain 1222807, VSE, replicate R2): 1 µg/mL | MIC ([4]; strain 1191008, MDR, ESBL, replicate R1): 8 µg/mL | MIC ([4]; strain 1191008, MDR, ESBL, replicate R2): 8 µg/mL | MIC ([4]; strain 1231795, MDR, ESBL, replicate R1): 8 µg/mL | MIC ([4]; strain 1231795, MDR, ESBL, replicate R2): 8 µg/mL | MIC ([4]; strain 1232428, MDR (COL-R), ESBL, replicate R1): 16 µg/mL | MIC ([4]; strain 1232428, MDR (COL-R), ESBL, replicate R2): 8 µg/mL | MIC ([4]; strain 1248389, ESBL, replicate R1): 8 µg/mL | MIC ([4]; strain 1248389, ESBL, replicate R2): 8 µg/mL | MIC ([4]; strain ATCC 25922, QC, replicate R1): 8 (3×) and 4 | MIC ([4]; strain ATCC 25922, QC, replicate R2): 4 and 8 (2×) | MIC ([4]; strain ATCC BAA-2452, NDM-1, replicate R1): 8 µg/mL | MIC ([4]; strain ATCC BAA-2452, NDM-1, replicate R2): 4 µg/mL | MIC ([5]; replicate R1): 8 (3×) and 4 | MIC ([5]; replicate R2): 8 and 4 (2×) | MIC ([6]; strain 1200385, PEN-S, replicate R1): 32 | MIC ([6]; strain 1200385, PEN-S, replicate R2): 32 | MIC ([6]; strain 1219456, PEN-R, replicate R1): 32 | MIC ([6]; strain 1219456, PEN-R, replicate R2): 32 | MIC ([6]; strain 1219876, PEN-R, replicate R1): 32 | MIC ([6]; strain 1219876, PEN-R, replicate R2): 32 | MIC ([6]; strain 1223661, PEN-R, replicate R1): 32 | MIC ([6]; strain 1223661, PEN-R, replicate R2): 32 | MIC ([6]; strain 1227224, PEN-S, replicate R1): 16 | MIC ([6]; strain 1227224, PEN-S, replicate R2): 32 | MIC ([6]; strain ATCC 49619, QC, replicate R1): 16 | MIC ([6]; strain ATCC 49619, QC, replicate R2): 16 | MIC ([7]; strain 1204424, non-MDR, replicate R1): 8 µg/mL | MIC ([7]; strain 1204424, non-MDR, replicate R2): 8 µg/mL | MIC ([7]; strain 1208060, non-MDR, replicate R1): 8 µg/mL | MIC ([7]; strain 1208060, non-MDR, replicate R2): 4 µg/mL | MIC ([7]; strain 1215088, MDR, replicate R1): 8 µg/mL | MIC ([7]; strain 1215088, MDR, replicate R2): 4 µg/mL | MIC ([7]; strain 1215098, MDR, replicate R1): 16 µg/mL | MIC ([7]; strain 1215098, MDR, replicate R2): 8 µg/mL | MIC ([7]; strain 1216520, non-MDR, replicate R1): 8 µg/mL | MIC ([7]; strain 1216520, non-MDR, replicate R2): 4 µg/mL | MIC ([8]; strain 1124691, MRSA (USA300)/MDR, replicate R1): 32 | MIC ([8]; strain 1182822, replicate R2): 32 | MIC ([8]; strain 1189667, MRSA/MDR, replicate R1): 32 | MIC ([8]; strain 1189667, MRSA/MDR, replicate R2): 16 | MIC ([8]; strain 1189809, MRSA/MDR, replicate R1): 32 | MIC ([8]; strain 1189809, MRSA/MDR, replicate R2): 32 | MIC ([8]; strain 1190388, MRSA, replicate R1): 32 | MIC ([8]; strain 1190388, MRSA, replicate R2): 16 | MIC ([8]; strain 1221979, MRSA, replicate R1): 32 | MIC ([8]; strain 1221979, MRSA, replicate R2): 32 | MIC ([8]; strain ATCC 29213, QC, replicate R1): 32 | MIC ([8]; strain ATCC 29213, QC, replicate R2): 32 | MIC ([9]; strain 1190985, non-MDR, replicate R1): 32 | MIC ([9]; strain 1190985, non-MDR, replicate R2): 32 | MIC ([9]; strain 1202638, MDR, replicate R1): 32 | MIC ([9]; strain 1202638, MDR, replicate R2): 32 | MIC ([9]; strain 1210081, non-MDR, replicate R1): 32 | MIC ([9]; strain 1210081, non-MDR, replicate R2): 32 | MIC ([9]; strain 1242554, non-MDR, replicate R1): 32 | MIC ([9]; strain 1242554, non-MDR, replicate R2): 16 | MIC ([9]; strain 1263496, MDR, replicate R1): 16 | MIC ([9]; strain 1263496, MDR, replicate R2): 8 | MIC ([9]; strain ATCC 27853, QC, replicate R1): 16 | MIC ([9]; strain ATCC 27853, QC, replicate R2): 8
